Results: patent US20040005636A1, “Method for obtaining the binding affinities of a peptide library to a protein” (priority 2002, published 2004)
Where two headings read alike, the source gives them in different places. Ends that are not written are not given here. Peptide text beside a SMILES is read from it. * marks the point of attachment. Fluorescein(5-NHCOCH2) = O=C(C*)Nc1ccc2c(c1)C(=O)OC21c2ccc(O)cc2Oc2cc(O)ccc21

T1: hTRβ-LBD (Homo sapiens, UniProt P10828)
T1 construct: The receptor ERα-LBD or TRβ-LBD, expressed using reported protocols; made in house
T1 sequence (P10828 217-461 limits assumed): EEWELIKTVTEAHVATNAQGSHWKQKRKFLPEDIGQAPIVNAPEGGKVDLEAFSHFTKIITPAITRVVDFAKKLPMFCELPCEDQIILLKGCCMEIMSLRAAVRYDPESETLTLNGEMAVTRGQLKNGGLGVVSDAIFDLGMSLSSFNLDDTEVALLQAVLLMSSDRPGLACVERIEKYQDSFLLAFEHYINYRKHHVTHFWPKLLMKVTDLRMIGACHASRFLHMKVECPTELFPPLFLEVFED

T2: hERα-LBD (Homo sapiens, UniProt P03372)
T2 construct: The receptor ERα-LBD or TRβ-LBD, expressed using reported protocols; made in house
T2 sequence (P03372 311-547 limits assumed): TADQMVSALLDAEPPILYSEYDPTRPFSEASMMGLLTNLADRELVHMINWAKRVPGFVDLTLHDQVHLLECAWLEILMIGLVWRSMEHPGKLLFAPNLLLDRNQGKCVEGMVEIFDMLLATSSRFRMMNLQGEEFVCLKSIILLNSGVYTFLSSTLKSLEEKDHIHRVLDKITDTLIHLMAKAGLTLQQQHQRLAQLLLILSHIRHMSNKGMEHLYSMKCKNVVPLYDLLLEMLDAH

T3: hTRβ-LBD (ligand binding domain of thyroid hormone receptor β) (human, UniProt P10828 202-461)
T3 construct: Assayed with the small-molecule ligand T3 present
T3 sequence (looked up): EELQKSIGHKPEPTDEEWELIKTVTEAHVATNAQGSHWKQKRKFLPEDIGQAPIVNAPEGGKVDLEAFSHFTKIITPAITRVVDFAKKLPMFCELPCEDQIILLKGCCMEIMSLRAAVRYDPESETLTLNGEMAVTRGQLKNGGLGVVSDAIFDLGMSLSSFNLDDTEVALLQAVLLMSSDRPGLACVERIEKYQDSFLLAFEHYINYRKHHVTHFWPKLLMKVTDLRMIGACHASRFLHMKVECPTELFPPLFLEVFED

T4: hERα-LBD (ligand binding domain of estrogen receptor α) (human, UniProt P03372 297-554)
T4 construct: Assayed with estradiol, diethylstilbestrol, genistein or tamoxifen present; the ligand is named under assay in each row
T4 sequence (looked up): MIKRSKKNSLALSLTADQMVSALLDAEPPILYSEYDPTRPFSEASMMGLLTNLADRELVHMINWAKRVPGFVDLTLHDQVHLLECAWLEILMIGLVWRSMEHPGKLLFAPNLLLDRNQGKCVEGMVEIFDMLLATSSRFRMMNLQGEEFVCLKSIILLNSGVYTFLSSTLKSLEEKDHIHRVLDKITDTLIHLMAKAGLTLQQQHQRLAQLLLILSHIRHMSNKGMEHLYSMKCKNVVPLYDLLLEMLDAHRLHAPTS


Assays:
hTRβ-LBD [1] = target: T1, hTRβ-LBD; settings: cited from earlier work
hTRβ-LBD [2] = target: T1, hTRβ-LBD; experiment: Fluorescence polarization assay of coregulator peptide binding to TRβ-LBD; settings: for Kd: TRβ-LBD with ligand T3, 10 nM fluorescent peptide, mean of 2 independent assays in quadruplicate, AL = assay limits, read-out: Observed Kd (dissociation constants for p160 peptides for TRβ)
Method: (§1) The peptide library synthesized in Example 1 was assayed with ERα or TRβ receptor. Library members were kept at a constant concentration of 10 nM. A ligand was optionally added to the nuclear hormone receptor.
(§2) The receptor ERα-LBD or TRβ-LBD, expressed using reported protocols (for TR see, e.g., Darimont et al., Genes Dev., 12(21):3343-56, (1998); and for ER, see, e.g., Shiau et al., Cell, (1998), 95(7):927-937), was used. The concentration of protein varied between 0.001-20 μM in the following way. In 96 well plates, hTRβ-LBD or hERα-LBD was serially diluted from 40 μM to 0.002 μM in binding buffer (50 mM Sodium Phosphate, 150 mM NaCl, pH 7.2, 1 mM DTT, 1 mM EDTA, 0.01% NP40, 10% glycerol), containing 200 μM ligand (T3, for TRβ, or estradiol, diethylstilbestrol, genistein or tamoxifen for ERα).
(§3) Subsequently 10 μL of diluted protein was added to 10 μL of fluorescent coregulator peptide (20 nM) in 384-well plates yielding final protein concentrations of […] and 10 nM fluorescent peptide concentration. The samples were allowed to equilibriate for 30 minutes. Binding was then measured using fluorescence polarization (excitation λ at 485 nm, emission λ at 530 nm) on an Analyst AD (available from Molecular Devices).
One of the major potential perturbing phenomena in this assay is unexpected quenching or enhancement of fluorescence intensity. To control for this, both overall fluorescence intensity and fluorescence anisotropy for each sample were simultaneously monitored.
(§4) All experiments were carried out in quadruplicate, with each iteration containing the positive and negative controls, and 10-12 dose points. The data were then fit using Klotz plots to determine IC50 values using nonlinear regression analysis that fits the data to a modification of the model of Heyduk and Lee. (Heyduk et al., Proc. Natl. Acad. Sci., (1990), 1774; Heyduk et al., Nature, (1993), 364, 6437; Heyduk et al., Methods Enzymol., 274, 492. Further analysis was conducted using Hill and Scatchard plots to confirm number and homogeneity of binding sites as discussed hereinbelow.
FIGS. 1 to 3 illustrate the results of three different measurements of the binding affinity of selected members of the SRC peptide library to TRβ-LBD. FIG. 4 illustrates a Scatchard plot, which provides the Kd for the SRC2-2 peptide. FIG. 5 illustrates a Hill plot, which provides the Kd for the SRC2-2 peptide. Both the Scatchard and Hill plot correlate with the direct binding plots illustrated in FIGS. 1-3. The Scatchard data were best fit to a linear function, which indicates a single class of binding sites. The slope of the Hill plot is 1, which also indicates a single class of binding sites. Measured dissociation constants for binding of the SRC peptide library to TRβ are illustrated in Table 3. […]

hERα-LBD = target: T2, hERα-LBD; experiment: Fluorescence polarization assay of coregulator peptide binding to ERα-LBD; settings: ERα-LBD in the presence of estradiol; read-out: Dissociation constant for ERα, Estradiol
Method: as §1, §2, §3, §4
FIG. 6 illustrates direct binding of SRC2-2 to ERα-LBD in the presence of the ligands estradiol, diethylstilbestrol and genistein. […] Measured dissociation constants for binding of members of the SRC peptide library to ERα, in the presence of 3 different ligands, are illustrated in Table 4 wherein the binding units are μM. Table 5 illustrates a comparison of binding constants (μM) for SRC peptides with the TRβ receptor in the presence of thyroid hormone T3, and the ERα receptor in the presence of estradiol.

[3] = target: T3, hTRβ-LBD (ligand binding domain of …); experiment: fluorescence polarization, fluorescein-labelled peptide 10 nM, hTRβ-LBD titrated, T3 present
Method: (§5) The concentration of protein varied between 0.001-20 μM in the following way. In 96 well plates, hTRβ-LBD or hERα-LBD was serially diluted from 40 μM to 0.002 μM in binding buffer (50 mM Sodium Phosphate, 150 mM NaCl, pH 7.2, 1 mM DTT, 1 mM EDTA, 0.01% NP40, 10% glycerol), containing 200 μM ligand (T₃, for TRβ, or estradiol, diethylstilbestrol, genistein or tamoxifen for ERα).
as §3
as §4, with “IC₅₀” for “IC50”

[4] = target: T4, hERα-LBD (ligand binding domain of …); experiment: fluorescence polarization, labelled peptide 10 nM, hERα-LBD titrated, genistein present
Method: as §5, §3
as §4, with “IC₅₀” for “IC50”

[5] = target: T4, hERα-LBD (ligand binding domain of …); experiment: fluorescence polarization, labelled peptide 10 nM, hERα-LBD titrated, estradiol present
Method: as §5, §3
as §4, with “IC₅₀” for “IC50”

[6] = target: T4, hERα-LBD (ligand binding domain of …); experiment: fluorescence polarization, hERα-LBD titrated, estradiol present; repeats Table 4
Method: as §5, §3
as §4, with “IC₅₀” for “IC50”

[7] = target: T3, hTRβ-LBD (ligand binding domain of …); experiment: fluorescence polarization, hTRβ-LBD titrated, T3 present; repeats Table 3
Method: as §5, §3
as §4, with “IC₅₀” for “IC50”

[8] = target: T4, hERα-LBD (ligand binding domain of …); experiment: fluorescence polarization, labelled peptide 10 nM, hERα-LBD titrated, diethylstilbestrol present
Method: as §5, §3
as §4, with “IC₅₀” for “IC50”

[9] = target: T3, hTRβ-LBD (ligand binding domain of …); experiment: fluorescence polarization, hTRβ-LBD titrated, T3 present; Table 3 prints ≧3 µM for this pair
Method: as §5, §3
as §4, with “IC₅₀” for “IC50”

[10] = TRβ, Darimont et al., Genes & Dev. (1998) 12:3343, read-out: Published Results: Kd app

Molecule	Kd (hTRβ-LBD [2]) [nM]	Kd (hERα-LBD) [nM]	Kd [4] [nM]	Kd [8] [nM]	Kd (hTRβ-LBD [1]; [10]) [nM]	also measured
CC[C@H](C)[C@H](NC(=O)[C@H](CCCCN)NC(=O)[C@H](Cc1c[nH]cn1)NC(=O)[C@H](CCCCN)NC(=O)[C@H](CCC(=O)O)NC(=O)[C@H](CCCCN)NC(=O)[C@H](CC(C)C)NC(=O)[C@@H](N)CSCC(=O)Nc1ccc2c(c1)C(=O)OC21c2ccc(O)cc2Oc2cc(O)ccc21)C(=O)N[C@@H](CC(C)C)C(=O)N[C@@H](Cc1c[nH]cn1)C(=O)N[C@@H](CCCNC(=N)N)C(=O)N[C@@H](CC(C)C)C(=O)N[C@@H](CC(C)C)C(=O)N[C@@H](CCC(N)=O)C(=O)N[C@@H](CC(=O)O)C(=O)N[C@@H](CO)C(=O)N[C@@H](CO)C(=O)N[C@@H](CO)C(=O)N1CCC[C@H]1C(=O)N[C@H](C(=O)O)C(C)C [SRC2-2]	670	222			800	Kd (hTRβ-LBD [1]; hTRβ-LBD, reported value, read-out: Reported Kd): 1000 nM
CC(C)C[C@H](NC(=O)[C@H](CCCCN)NC(=O)[C@H](CCCCN)NC(=O)[C@H](Cc1c[nH]cn1)NC(=O)CNC(=O)[C@H](CCCCN)NC(=O)[C@H](CO)NC(=O)[C@H](CCC(=O)O)NC(=O)[C@@H](N)CSCC(=O)Nc1ccc2c(c1)C(=O)OC21c2ccc(O)cc2Oc2cc(O)ccc21)C(=O)N[C@@H](CC(C)C)C(=O)N[C@@H](CCC(N)=O)C(=O)N[C@@H](CC(C)C)C(=O)N[C@@H](CC(C)C)C(=O)N[C@H](C(=O)N[C@@H](CS)C(=O)N[C@@H](CO)C(=O)N[C@@H](CO)C(=O)N[C@@H](CC(=O)O)C(=O)N[C@@H](CC(=O)O)C(=O)N[C@@H](CCCNC(=N)N)C(=O)O)[C@@H](C)O [SRC3-1] (H-C(Fluorescein(5-NHCOCH2))ESKGHKKLLQLLTCSSDDR-OH; N-terminus assumed)						Comparison of affinity for TRβ and ERα (hTRβ-LBD [2]; Tables 3, 4 and 5): approximately the same affinity
CC[C@H](C)[C@H](NC(=O)[C@H](CCCCN)NC(=O)[C@H](Cc1c[nH]cn1)NC(=O)[C@H](CCCNC(=N)N)NC(=O)[C@H](C)NC(=O)[C@@H](NC(=O)[C@H](CC(C)C)NC(=O)[C@@H](N)CSCC(=O)Nc1ccc2c(c1)C(=O)OC21c2ccc(O)cc2Oc2cc(O)ccc21)[C@@H](C)O)C(=O)N[C@@H](CC(C)C)C(=O)N[C@@H](Cc1c[nH]cn1)C(=O)N[C@@H](CCCNC(=N)N)C(=O)N[C@@H](CC(C)C)C(=O)N[C@@H](CC(C)C)C(=O)N[C@@H](CCC(N)=O)C(=O)N[C@@H](CCC(=O)O)C(=O)NCC(=O)N[C@@H](CO)C(=O)N1CCC[C@H]1C(=O)N[C@@H](CO)C(=O)N[C@@H](CC(=O)O)C(=O)O [SRC1-2]	930	231				
C(5‑iodoacetamidofluorescein)KKKENALLRYLLDKDDTKD [SRC2-3 coregulator peptide]			2000	786		Kd [9]: 3000 nM

Continued, in another order:

Kd (hTRβ-LBD [2]) [nM]	Kd (hERα-LBD) [nM]	Kd [4] [nM]	Kd [8] [nM]	Molecule	Kd (hTRβ-LBD [1]; [10]) [nM]	also measured
≥ 3000	1420			CC(C)C[C@H](NC(=O)[C@H](C)NC(=O)[C@H](CC(N)=O)NC(=O)[C@H](CCC(=O)O)NC(=O)[C@H](CCCCN)NC(=O)[C@H](CCCCN)NC(=O)[C@H](CCCCN)NC(=O)[C@@H](N)CSCC(=O)Nc1ccc2c(c1)C(=O)OC21c2ccc(O)cc2Oc2cc(O)ccc21)C(=O)N[C@@H](CC(C)C)C(=O)N[C@@H](CCCNC(=N)N)C(=O)N[C@@H](Cc1ccc(O)cc1)C(=O)N[C@@H](CC(C)C)C(=O)N[C@@H](CC(C)C)C(=O)N[C@@H](CC(=O)O)C(=O)N[C@@H](CCCCN)C(=O)N[C@@H](CC(=O)O)C(=O)N[C@@H](CC(=O)O)C(=O)N[C@H](C(=O)N[C@@H](CCCCN)C(=O)N[C@@H](CC(=O)O)C(=O)O)[C@@H](C)O [SRC2-3]	3200	
		250	1000	C(5‑iodoacetamidofluorescein)ESKGHKKLLQLLTCSSDDR (The peptide has a second, internal Cys) [SRC3-1 coregulator peptide]		Kd [3]: 870 nM; Kd [5]: 160 nM; Kd [6]: 160 nM; Kd [7]: 870 nM
